Measured values from patent US6737383B1, “Herbicidal oxadiazolidines” (priority 1999, dated 2004).

What was measured:
[1] = test system: bedstraw; assay: Test B pre/postemergence bedstraw; format: in vivo, Galium aparine
Summary of the method: (§1)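 Response is a visual 0-to-10 score relative to untreated plants, where 0 means no effect and 10 means complete control, taken twelve to sixteen days after application. Treatments went onto soil at planting and onto foliage of 1- to 4-leaf plants, using a surfactant-containing non-phytotoxic solvent.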

[2] = test system: blackgrass; assay: Test B pre/postemergence blackgrass; format: in vivo, Alopecurus myosuroides
Summary of the method: as §1

[3] = test system: surinam grass; assay: Test B pre/postemergence surinam grass; format: in vivo, Brachiaria decumbens
Summary of the method: as §1

[4] = test system: cocklebur; assay: Test B pre/postemergence cocklebur; format: in vivo, Xanthium strumarium
Summary of the method: as §1

[5] = test system: corn; assay: Test B pre/postemergence corn; format: in vivo, Zea mays
Summary of the method: as §1

[6] = test system: crabgrass; assay: Test B pre/postemergence crabgrass; format: in vivo, Digitaria sanguinalis
Summary of the method: as §1

[7] = test system: giant foxtail; assay: Test B pre/postemergence giant foxtail; format: in vivo, Setaria faberii
Summary of the method: as §1

[8] = test system: morningglory; assay: Test B pre/postemergence morningglory; format: in vivo, Ipomoea hederacea
Summary of the method: as §1

[9] = test system: pigweed; assay: Test B pre/postemergence pigweed; format: in vivo, Amaranthus retroflexus
Summary of the method: as §1

[10] = test system: rape; assay: Test B pre/postemergence rape; format: in vivo, Brassica napus
Summary of the method: as §1

[11] = test system: soybean; assay: Test B pre/postemergence soybean; format: in vivo, Glycine max
Summary of the method: as §1

[12] = test system: sugar beet; assay: Test B pre/postemergence sugar beet; format: in vivo, Beta vulgaris
Summary of the method: as §1

[13] = test system: velvetleaf; assay: Test B pre/postemergence velvetleaf; format: in vivo, Abutilon theophrasti
Summary of the method: as §1

[14] = test system: wheat; assay: Test B pre/postemergence wheat; format: in vivo, Triticum aestivum
Summary of the method: as §1

[15] = test system: wild oat; assay: Test B pre/postemergence wild oat; format: in vivo, Avena fatua
Summary of the method: as §1

[16] = test system: purple nutsedge; assay: Test B pre/postemergence purple nutsedge; format: in vivo, Cyperus rotundus
Summary of the method: as §1

[17] = test system: rice; assay: Test B flood test rice; format: in vivo, Oryza sativa
Summary of the method: (§2)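 Plants were grown to the 2-leaf stage before treatment with test chemical, then held in a greenhouse for twelve to sixteen days. Injury was visually rated against untreated controls on a 0–10 scale, where 0 is no effect and 10 is complete control.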

[18] = test system: smallflower flatsedge; assay: Test B flood test smallflower flatsedge; format: in vivo, Cyperus difformis
Summary of the method: as §2

[19] = test system: duck salad; assay: Test B flood test duck salad; format: in vivo, Heteranthera limosa
Summary of the method: as §2

[20] = test system: bamyardgrass; assay: Test B flood test barnyardgrass; format: in vivo, Echinochloa crus-galli
Summary of the method: as §2

[21] = Preemergence, Rate 62 g/ha, scale of 0 to 10 where 0 is no effect and 10 is complete control
[22] = Preemergence, Rate 250 g/ha, scale of 0 to 10 where 0 is no effect and 10 is complete control
[23] = Preemergence, Rate 500 g/ha, scale of 0 to 10 where 0 is no effect and 10 is complete control
[24] = Rate 62 g/ha, Postemergence, scale of 0 to 10 where 0 is no effect and 10 is complete control
[25] = Rate 125 g/ha, Postemergence, scale 0 to 10
[26] = Rate 125 g/ha, Preemergence, scale of 0 to 10 where 0 is no effect and 10 is complete control
[27] = Rate 500 g/ha, Postemergence, scale 0 to 10, 0 no effect, 10 complete control
[28] = Rate 62 g/ha, headed Pre-emergence (flood test species), scale 0 to 10 (0 no effect, 10 complete control)
[29] = Rate 125 g/ha, Pre-emergence, flood test species, scale 0 to 10 where 0 is no effect and 10 is complete control
[30] = Rate 250 g/ha, Pre-emergence, flood-test species, scale 0 to 10, 0 is no effect, 10 is complete control
[31] = Rate 500 g/ha, Pre-emergence, flood test species, scale 0 to 10 (0 no effect, 10 complete control)

Cc1noc(C)c1Cn1c(=O)on(C(=O)N(c2ccc(F)cc2)C(C)C)c1=O [Compound 259]
Bedstraw plant response rating [1, 21]: 7
Bedstraw plant response rating [1, 22]: 10
Plant response rating, Bedstraw [1, 23]: 10
Bedstraw plant response rating [1, 24]: 0
Bedstraw plant response rating [1, 25]: 0
Bedstraw plant response rating [1, 26]: 10
Blackgrass plant response rating [2, 21]: 2
Blackgrass plant response rating [2, 22]: 10
Plant response rating, Blackgrass [2, 23]: 10
Blackgrass plant response rating [2, 24]: 0
Blackgrass plant response rating [2, 25]: 0
Blackgrass plant response rating [2, 26]: 10
Plant response rating (0 to 10; 0 is no effect, 10 is complete control), Blackgrass ([2]; Rate 250 g/ha, Postemergence): 0
Blackgrass plant response rating [2, 27]: 0
B. signalgrass plant response rating [3, 21]: 2
B. signalgrass plant response rating [3, 22]: 8
Plant response rating, B. signalgrass [3, 23]: 9
B. signalgrass plant response rating [3, 24]: 0
B. signalgrass plant response rating ([3]; Rate 125 g/ha, Postemergence, scale 0 (no effect) to 10 (complete control)): 0
B. signalgrass plant response rating [3, 26]: 5
Plant response rating (0 to 10; 0 is no effect, 10 is complete control), B. signalgrass ([3]; Rate 250 g/ha, Postemergence): 0
B. signalgrass plant response rating [3, 27]: 0
Cocklebur plant response rating [4, 21]: 0
Cocklebur plant response rating [4, 22]: 0
Plant response rating, Cocklebur [4, 23]: 0
Cocklebur plant response rating [4, 24]: 0
Cocklebur plant response rating [4, 25]: 2
Cocklebur plant response rating [4, 26]: 0
Plant response rating (0 to 10; 0 is no effect, 10 is complete control), Cocklebur ([4]; Rate 250 g/ha, Postemergence): 2
Cocklebur plant response rating [4, 27]: 3
Corn plant response rating [5, 21]: 0
Corn plant response rating [5, 22]: 3
Plant response rating, Corn [5, 23]: 3
Corn plant response rating [5, 24]: 0
Corn plant response rating [5, 25]: 0
Corn plant response rating [5, 26]: 0
Plant response rating (0 to 10; 0 is no effect, 10 is complete control), Corn ([5]; Rate 250 g/ha, Postemergence): 0
Corn plant response rating [5, 27]: 0
Crabgrass plant response rating [6, 21]: 4
Plant response rating, Crabgrass [6, 23]: 7
Crabgrass plant response rating [6, 26]: 4
Plant response rating (0 to 10; 0 is no effect, 10 is complete control), Crabgrass ([6]; Rate 250 g/ha, Postemergence): 0
Crabgrass plant response rating [6, 27]: 0
Giant foxtail plant response rating [7, 21]: 9
Giant foxtail plant response rating [7, 22]: 9
Plant response rating, Giant foxtail [7, 23]: 10
Giant foxtail plant response rating [7, 26]: 9
Plant response rating (0 to 10; 0 is no effect, 10 is complete control), Giant foxtail ([7]; Rate 250 g/ha, Postemergence): 0
Giant foxtail plant response rating [7, 27]: 0
Morningglory plant response rating [8, 21]: 0
Morningglory plant response rating [8, 22]: 0
Plant response rating, Morningglory [8, 23]: 0
Morningglory plant response rating [8, 26]: 0
Plant response rating (0 to 10; 0 is no effect, 10 is complete control), Morningglory ([8]; Rate 250 g/ha, Postemergence): 7
Morningglory plant response rating [8, 27]: 8
Redroot pigweed plant response rating [9, 21]: 0
Redroot pigweed plant response rating [9, 22]: 2
Plant response rating, Redroot pigweed [9, 23]: 8
Redroot pigweed plant response rating [9, 26]: 0
Plant response rating (0 to 10; 0 is no effect, 10 is complete control), Redroot pigweed ([9]; Rate 250 g/ha, Postemergence): 6
Redroot pigweed plant response rating [9, 27]: 7
Rape plant response rating [10, 21]: 0
Plant response rating, Rape [10, 23]: 9
Rape plant response rating [10, 26]: 0
Plant response rating (0 to 10; 0 is no effect, 10 is complete control), Rape ([10]; Rate 250 g/ha, Postemergence): 0
Soybean plant response rating [11, 21]: 0
Soybean plant response rating [11, 22]: 0
Plant response rating, Soybean [11, 23]: 0
Soybean plant response rating [11, 26]: 0
Soybean plant response rating [11, 27]: 6
Sugarbeets plant response rating [12, 21]: 0
Sugarbeets plant response rating [12, 22]: 0
Plant response rating, Sugarbeets [12, 23]: 0
Sugarbeets plant response rating [12, 26]: 0
Sugarbeets plant response rating [12, 27]: 3
Velvetleaf plant response rating [13, 21]: 2
Velvetleaf plant response rating [13, 22]: 4
Plant response rating, Velvetleaf [13, 23]: 5
Velvetleaf plant response rating [13, 26]: 2
Velvetleaf plant response rating [13, 27]: 1
Wheat plant response rating [14, 21]: 0
Wheat plant response rating [14, 22]: 0
Plant response rating, Wheat [14, 23]: 0
Wheat plant response rating [14, 26]: 0
Wheat plant response rating [14, 27]: 3
Wild oats plant response rating [15, 21]: 2
Wild oats plant response rating [15, 22]: 4
Plant response rating, Wild oats [15, 23]: 4
Wild oats plant response rating [15, 26]: 2
Wild oats plant response rating [15, 27]: 0
Nutsedge plant response rating [16, 21]: 0
Nutsedge plant response rating [16, 22]: 0
Plant response rating, Nutsedge [16, 23]: 0
Nutsedge plant response rating [16, 26]: 0
Plant response rating (0 to 10; 0 is no effect, 10 is complete control), Nutsedge ([16]; Rate 250 g/ha, Postemergence): 0
Nutsedge plant response rating [16, 27]: 0
Rice plant response rating [17, 28]: 0
Rice plant response rating [17, 29]: 0
Rice plant response rating [17, 30]: 0
Rice plant response rating [17, 31]: 0
S. Flatsedge plant response rating [18, 28]: 0
S. Flatsedge plant response rating [18, 29]: 0
S. Flatsedge plant response rating [18, 30]: 0
S. Flatsedge plant response rating [18, 31]: 0
Ducksalad plant response rating [19, 28]: 0
Ducksalad plant response rating [19, 29]: 0
Ducksalad plant response rating [19, 30]: 0
Ducksalad plant response rating [19, 31]: 0
Barnyardgrass plant response rating [20, 28]: 0
Barnyardgrass plant response rating [20, 29]: 0
Barnyardgrass plant response rating [20, 30]: 0
Barnyardgrass plant response rating [20, 31]: 0
